Measurements from patent publication US4859668A, “Method of inhibiting the growth of melanin-pigmented cells” (North Carolina State University, priority 1988, dated 1989).
In brackets after ≈: the same amount, converted by molar mass. Like-named read-outs stand apart in the source and are kept apart here.

What was measured:
[1] = tested on: Chinese hamster ovary (CHO); test: cells; conditions: Cricetulus griseus, 48 h, read-out: ID50 (growth)
Method: (§1) The Figure illustrates the effect of morpholine on the growth rate of HFH-LP (*), NP (0), BHK (+) and CHO (#) 48 hours after treatment. Values represent the mean ± S.E. for 3 to 6 determinations.

[2] = tested on: HFH-LP (pigmented line derived from the B-16 mouse melanoma); test: cells
Method: as §1

[3] = tested on: NP (amelanotic clone of HFH-LP); test: cells; conditions: Mus musculus, 48 h, read-out: ID50 (growth)
Method: as §1

[4] = tested on: baby hamster kidney (BHK); test: cells; conditions: Mesocricetus auratus, 48 h, read-out: ID50 (growth)
Method: as §1

[5] = tested on: unpigmented cell lines NP, BHK and CHO
Method: as §1

[6] = tested on: HFH-LP; test: Effect of Cyclic Amines on Growth Rate of Pigmented Melanoma (Table I), HFH-LP; assay type: cell-based, mouse; conditions: for inhibition at 13800 µM: Mus musculus, read-out: Effect on Growth Rate (inhibition), HFH-LP
Method: (§4) These cell cultures include low passage HFH (HFH-LP), a pigmented line derived from the B-16 mouse melanoma, and NP, an amelanotic clone of HFH-LP. […] These cells were maintained as monolayers in Corning plastic flasks in Minimum Essential Medium (Eagle) with Earle's salts supplemented with 10% fetal bovine serum, 100 units of penicillin, 100 mg of streptomycin and 5 mg of amphotericin B per ml in 5% CO2 humidified air at 37° C.
(§5) Prior to dose-response studies, single cell suspensions were prepared in medium following trypsinization and inoculated into Falcon Multiwell plates (2 cm^2 wells) at 3.5×10^4 cells per 0.5 ml of medium. Cultures were maintained for 24 hours before exposure.
(§6) This stock solution was used to prepare test concentrations of the drug in culture medium. […] Cells were exposed to each of these concentrations by adding 0.5 ml of each of the solutions to triplicate test wells and incubating the cells under exposure at 37° C. for 1 hour. […] Cells were harvested after 48 hours and counted with a hemacytometer.

[7] = tested on: S91 melanoma; test: Effects of Various Cyclic Amines on Growth of Pigmented Melanoma Cells (Table III), S91; assay type: cell-based, mouse; conditions: Mus musculus, read-out: Percent Inhibition, S91 melanoma
Method: (§2) Pigmented S91 melanoma and unpigmented L929 fibroblast cells were treated with various cyclic amines at a concentration of 13.8 mM as described in Example 1 above.

[8] = tested on: L929 fibroblast; test: Effects of Various Cyclic Amines on Growth of Pigmented Melanoma Cells (Table III), L929; assay type: cell-based, mouse; conditions: Mus musculus, read-out: Percent Inhibition, L929 fibroblast
Method: as §2

[9] = tested on: BHK; test: cells; conditions: Mesocricetus auratus, read-out: Percent Cell Detachment
Method: (§3) HFH and SH heavily pigmented cells, S91 lightly pigmented cells, and BHK nonpigmented cells were exposed to 13.8 mM morpholine for time periods ranging from 1 hour to 56 hours. The procedure was otherwise the same as described in Example 1 above. Cell death is indicated by cell detachment.

[10] = tested on: HFH; test: cells; conditions: Homo sapiens, read-out: Percent Cell Detachment
Method: as §3

[11] = tested on: S91; test: cells; conditions: Mus musculus, read-out: Percent Cell Detachment
Method: as §3

[12] = tested on: SH; test: cells; conditions: read-out: Percent Cell Detachment
Method: as §3

[13] = tested on: L929; test: cells; conditions: Mus musculus, L929, 48 h, read-out: Growth inhibition, Morph. Alone vs. control
[14] = tested on: melanin-pigmented cells; test: In vitro selective inhibition of melanin-pigmented cells, effective dosage/time regimens; assay type: cell-based
[15] = tested on: HFH-HP
Text: (§7) These cell cultures include low passage HFH (HFH-LP), a pigmented line derived from the B-16 mouse melanoma, and NP, an amelanotic clone of HFH-LP. High passage HFH (HFH-HP) was derived from HFH-LP after 30 passages in vitro. […] These cell cultures further include Cloudman S91 mouse melanoma, RPMI 1846 (a Syrian hamster melanoma), baby hamster kidney (BHK) and Chinese hamster ovary (CHO). These cells were maintained as monolayers in Corning plastic flasks in Minimum Essential Medium (Eagle) with Earle's salts supplemented with 10% fetal bovine serum, 100 units of penicillin, 100 mg of streptomycin and 5 mg of amphotericin B per ml in 5% CO2 humidified air at 37° C.
(§8) Single cell suspensions were prepared as described above. Twenty-four hours after seeding, the cells were exposed to either (a) culture medium alone, or (b) culture medium containing 0.5 mM theophylline.
(§9) The values given are the mean from 6 replicates.

[16] = tested on: RPMI-1641; conditions: RPMI 1641, morpholine alone
Text: as §7, §8, §9

[17] = tested on: NP; test: cells; conditions: Mus musculus, 1.5 h, read-out: Effect on Growth Rate (inhibition), NP
Method: as §4, §5, §6

[18] = tested on: HFH-LP; test: cells; conditions: Mus musculus, 48 h, read-out: Growth inhibition, Morph. Alone vs. control
Text: as §7, §8, §9

[19] = tested on: RPMI-1641; test: cells; conditions: Mesocricetus auratus, 48 h, read-out: Growth inhibition, Morph. Alone vs. control
Text: as §7, §8, §9

[20] = tested on: NP; test: cells; conditions: Mus musculus, 48 h, read-out: Growth inhibition, Morph. Alone vs. control
Text: as §7, §8, §9

[21] = tested on: BHK; test: cells; conditions: Mesocricetus auratus, 48 h, read-out: Growth inhibition, Morph. Alone vs. control
Text: as §7, §8, §9

[22] = in vitro; conditions: mouse, l929 cells
Method: (§10) These cells were maintained as monolayers in Corning plastic flasks in Minimum Essential Medium (Eagle) with Earle's salts supplemented with 10% fetal bovine serum, 100 units of penicillin, 100 mg of streptomycin and 5 mg of amphotericin B per ml in 5% CO2 humidified air at 37° C.
as §5, §6

[23] = tested on: S91 (Cloudman S91 mouse melanoma); test: Effect of Cyclic Amines on Survival of Pigmented Melanoma (Table II), S91; conditions: 24 h, read-out: percentage dead, S91
Method: as §10, §5, §6

[24] = tested on: HFH-LP; test: Effect of Cyclic Amines on Survival of Pigmented Melanoma (Table II), HFH-LP; conditions: Mus musculus, 24 h, read-out: percentage dead, HFH-LP
Method: as §10, §5, §6

[25] = Effect of Cyclic Amines on Survival of Pigmented Melanoma (Table II), L929; conditions: mouse, l929 cells
Method: as §10, §5, §6

C1COCCN1 [morpholine]
IC50 [1]: > 2400 µg/mL | IC50 ([2]; Mus musculus, 48 h, read-out: ID50 (growth)): 1200 µg/mL (≈ 13.8 mM) | inhibition of pigmented HFH cell line compared with unpigmented cell lines ([2]; at 1200 and 2400 ug/ml): inhibited significantly more (P<0.05) | inhibition of pigmented cells ([2]; up to, 300-2400 ug/ml, 48 hours after treatment): up to 90% | IC50 [3]: > 2400 µg/mL | IC50 [4]: > 2400 µg/mL | difference between unpigmented cell lines ([5]; any of the dosages tested): did not differ significantly from one another | inhibition of nonpigmented cell growth ([5]; higher dosages, 48 hours after treatment): 20% | effect on nonpigmented cell growth ([5]; low dosages, 48 hours after treatment): not affected | inhibition at 13800 µM ([6]; 13.8 mM for 1.5 hr, mean ± S.E., 6 replicates): 97 ± 19% | inhibition at 13800 µM ([7]; S91, 1 Hour Exposure to 13.8 mM): 60% | inhibition at 13800 µM ([8]; L929, 1 Hour Exposure to 13.8 mM): 0% | cytotoxicity at 13800 µM ([9]; 1 h): 0% | cytotoxicity at 13800 µM ([9]; 6 h): 0% | cytotoxicity at 13800 µM ([9]; 12 h): 0% | cytotoxicity at 13800 µM ([9]; 18 h): 0% | cytotoxicity at 13800 µM ([9]; 24 h): 20% | cytotoxicity at 13800 µM ([9]; 56 h): 100% | cytotoxicity at 13800 µM ([10]; 1 h): 0% | cytotoxicity at 13800 µM ([10]; 6 h): 40% | cytotoxicity at 13800 µM ([10]; 12 h): 100% | cytotoxicity at 13800 µM ([10]; 18 h): 100% | cytotoxicity at 13800 µM ([10]; 24 h): 100% | cytotoxicity at 13800 µM ([10]; 56 h): 100% | cytotoxicity at 13800 µM ([11]; S91, 1 h): 0% | cytotoxicity at 13800 µM ([11]; S91, 6 h): 50% | cytotoxicity at 13800 µM ([11]; S91, 12 h): 100% | cytotoxicity at 13800 µM ([11]; S91, 18 h): 100% | cytotoxicity at 13800 µM ([11]; S91, 24 h): 100% | cytotoxicity at 13800 µM ([11]; S91, 56 h): 100% | cytotoxicity at 13800 µM ([12]; 1 h): 0% | cytotoxicity at 13800 µM ([12]; 6 h): 0% | cytotoxicity at 13800 µM ([12]; 12 h): 5% | cytotoxicity at 13800 µM ([12]; 18 h): 80% | cytotoxicity at 13800 µM ([12]; 24 h): 80% | cytotoxicity at 13800 µM ([12]; 56 h): 100% | inhibition at 1200 µg/mL [13]: -68% | in vitro effectiveness of dosage/time regimen ([14]; 2.3 mM for 6 days): effective in vitro for inhibiting the growth of melanin-pigmented cells with little or no effect upon unpigmented cells | in vitro effectiveness of dosage/time regimen ([14]; 13.8 mM for 1 hour): effective in vitro for inhibiting the growth of melanin-pigmented cells with little or no effect upon unpigmented cells | selective toxicity to melanoma cells in vitro ([14]; 750 ppm (9mM) or 500 ppm (5mM)): selectively toxic to melanoma cells in vitro | greater toxicity of morpholine with theophylline pretreatment ([15]; growth inhibition increasing from 25% to 54%): twofold | growth inhibition with theophylline pretreatment ([15]; morpholine with theophylline pretreatment): 54% | growth rate with morpholine exposure alone [16]: not inhibited | inhibition at 13800 µM [17]: 0% | inhibition at 1200 µg/mL [18]: 64% | inhibition at 1200 µg/mL [19]: -6% | inhibition at 1200 µg/mL [20]: -9% | inhibition at 1200 µg/mL [21]: 0% | cytotoxicity at 24 h, 13800 µM [22]: -101 ± 15% | cytotoxicity at 13800 µM [23]: 55 ± 6% | cytotoxicity at 13800 µM [24]: 30 ± 7%

C1CCNCC1 [piperidine]
inhibition at 13800 µM ([6]; 1.5 h): 42 ± 4% | inhibition of pigmented cell line HFH-LP (in words) ([6]; not as effective as morpholine at the dosage tested): selectively inhibitory to the pigmented cell line HFH-LP, although not as effective as morpholine | inhibition at 13800 µM ([7]; S91, 1 h): 98% | inhibition at 13800 µM ([8]; L929, 1 h): 0% | in vitro effectiveness of dosage/time regimen ([14]; 13.8 mM for 1 hour): effective in vitro for inhibiting the growth of melanin-pigmented cells with little or no effect upon unpigmented cells | inhibition at 13800 µM [17]: 0% | cytotoxicity at 13800 µM [23]: 44 ± 3% | cytotoxicity at 24 h, 13800 µM [25]: -115 ± 14% | cytotoxicity at 13800 µM [24]: 33 ± 2%
